This note sets out measurements from PubChem BioAssay AID1919007 (Molecular Pharmacology Branch, DTP, NCI, 2023).

This assay has as its system A498 complex spheroids with HUVEC/MSC, growth. Kind of assay: Anticancer human tumor A498 cell line growth inhibition [AhR].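 On all read-outs here: seven day exposure starting three days after spheroid seeding.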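 On viability, T/C: luminescence signal used as a surrogate for viable cells; luminescence viability scaled so 100% equals DMSO vehicle wells.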 The conditions noted are these: for viability, T/C: stronger effect = lower value; for IC50: curve of compound. The source says:
Multicellular complex tumor spheroid response to aryl hydrocarbon receptor antagonists in combination with a variety of drugs and investigational agents in selected tumor cell lines
The current study was undertaken to assess response to aryl hydrocarbon receptor antagonists in combination with standard-of-care drugs and investigational agents in solid tumor complex spheroid models. Complex spheroids include a stromal component modeled by human endothelial cells (HUVEC) and fibroblasts modeled by human mesenchymal stem cells (MSCs). The concentration ranges selected for each drug and investigational agent were based upon clinically achievable concentrations if the clinical Cmax of the agent was known.
Compounds. The drugs and investigational agents: BAY 2416964 (NSC825713), GNF351 (NSC835774), CH-223191 (NSC835775), CPI-455 (NSC825282), aza-TdCyd (NSC777586), decitabine (NSC127716), belinostat (NSC758774), entinostat (NSC756642), pevonedistat (NSC761192), tazemetostat (NSC777109), talazoparib (NSC765396), olaparib (NSC753686), selinexor (NSC780203), nedisertib (M3814, NSC802822), bortezomib (NSC756655), venetoclax (NSC766270), doxorubicin (NSC123127), elimusertib (BAY189344, NSC800525), ceralasertib (AZD6738, NSC777638), TAK-243 (NSC785004), alisertib (NSC759677), etoposide (NSC141540), topotecan (NSC609699), eribulin (NSC707389), gemcitabine (NSC613327), carboplatin (NSC241240), cisplatin (NSC119875), and SN-38 (NSC673596) were obtained from the National Cancer Institute (NCI) Developmental Therapeutics Program Chemical Repository (32). The FDA-approved anticancer drug set is available from the Developmental Therapeutics Program at https://dtp.cancer.gov/organization/dscb/obtaining/available plates.htm. […] The stock solutions were prepared in dimethyl sulfoxide (DMSO, Sigma-Aldrich, St. Louis, MO, cat. D2650), except for the platinum compounds which were prepared in saline (Quality Biological, Gaithersburg, MD, cat. 114-055-101), at 800-fold the tested concentration and stored at -70 degrees C prior to their use. All drugs and investigational agents were tested over a range starting from a high concentration at or near the clinical Cmax and decreasing in half-log increments. If the clinical Cmax for an agent had not been determined, the highest concentration tested was 10 microM (Table 1).
Cell Culture. All cells were maintained in an incubator at 37 degrees C and 5% CO2 with 95% humidity. The PDC lines were cultured according to standard operating procedures established by the NCI PDMR (https://pdmr.cancer.gov). Briefly, all PDCs were thawed and cultured in Matrigel-coated flasks prepared with a working solution of 1X Ham's F-12 nutrient mix, without supplementation (Invitrogen, Waltham, MA, cat. 11765054), 100 U/mL penicillin-streptomycin (Invitrogen, cat. 15140122), and 2.5% Matrigel (Corning Inc., Corning, NY, cat. 354248) for the first three passages. All PDCs were cultured in complete DMEM/F-12 media containing advanced DMEM/F-12 (Invitrogen, cat. 12634028), 4.9% defined fetal bovine serum, heat inactivated (HyClone Laboratories Inc., Logan, UT, cat. SH30070.03HI), 389 ng/mL hydrocortisone (Sigma-Aldrich, cat. H4001), 9.7 ng/mL human EGF recombinant protein (Invitrogen, cat. PHG0313), 23.4 microg/mL adenine (Sigma-Aldrich, cat. A2786), 97.3 U/mL penicillin-streptomycin (Invitrogen, cat. 15140122), 1.9 mM L-glutamine (Invitrogen, cat. 25030081), and 9.7 microM Y-27632 dihydrochloride (Tocris Bioscience, Bristol, United Kingdom, cat. 1254). The PDCs were cultured in complete DMEM/F12 media without 10 microM Y-27632 dihydrochloride for at least two passages prior to the screen. The established cell lines NCI-H1341 and […] were cultured in DMEM/F-12, HEPES (Invitrogen, cat. 11330032), 5% defined fetal bovine serum (HyClone Laboratories Inc., cat. SH30070.03), ITS premix universal culture supplement [insulin (5 microg/mL), transferrin (5 microg/mL), and selenious acid (5 ng/mL)] […]

Values joined by “and” are separate entries in the source; they are usually repeats but may differ in a detail not shown here. Identical values can stand only once.

One may read the viability, T/C as the result in the treated group divided by that in the control group, in per cent. By IC50 is commonly meant the concentration at which inhibition is half-maximal.

As for `CC(C)CC(NC(=O)C(Cc1ccccc1)NC(=O)c1cnccn1)B(O)O` (stereo not drawn), the IC50 is 5.7 nM and 5.75 nM and 3.57 nM. Also, where the note is “compound 0.000949 µM”, the viability, T/C was 103% and 105% and 98.6%. Moreover, the viability, T/C (compound 0.003 µM) is 106% and 99.9% and 58.5%. Also, the viability, T/C (compound 0.00949 µM) is 6.74% and 11.6% and 2.52%. The viability, T/C (compound 0.03 µM) was 1.23% and 2.41% and 0.68%. Besides, the viability, T/C (compound 0.0949 µM) is 0.52% and 1.47% and 1.32%. The viability, T/C (compound 0.3 µM) is 0.53% and 0.64% and 0.32%.
Consider `CC1(C)CCC(CN2CCN(c3ccc(C(=O)NS(=O)(=O)c4ccc(NCC5CCOCC5)c([N+](=O)[O-])c4)c(Oc4cnc5[nH]ccc5c4)c3)CC2)=C(c2ccc(Cl)cc2)C1`, for which the IC50 is 6010 nM and > 10000 nM and 6170 nM. For the same compound, the viability, T/C (compound 0.0316 µM) was 99.2% and 106% and 101%. Also, where the note is “compound 0.1 µM”, the viability, T/C is 115% and 103% and 98.6%. Also, where the note is “compound 0.316 µM”, the viability, T/C was 96.3% and 101% and 95.3%. Under “compound 1 µM”, the viability, T/C is 86.8% and 94.5% and 92.4%. In addition, the viability, T/C (compound 3.16 µM) was 80.8% and 86% and 84.5%. Further, the viability, T/C (compound 10 µM) is 28.3% and 56.8% and 25.5%.
As for `CC1COCCN1c1cc(-c2ccnn2C)c2ccnc(-c3ccn[nH]3)c2n1` (stereo not drawn), the IC50 was 167 nM and 121 nM and 90.9 nM. The viability, T/C (compound 0.00316 µM) was 108% and 93.8% and 98.7%. Also, the viability, T/C (compound 0.01 µM) was 111% and 87.4% and 102%. Besides, for the setting “compound 0.0316 µM”, the viability, T/C was 95.7% and 68.2% and 82.7%. Moreover, the viability, T/C (compound 0.1 µM) is 64.3% and 61.4% and 47.2%. Besides, the viability, T/C (compound 0.316 µM) was 32.3% and 25.7% and 21%. For the same compound, where the note is “compound 1 µM”, the viability, T/C was 22.3% and 15.8% and 13.9%.
Take `CCN(c1cc(-c2ccc(CN3CCOCC3)cc2)cc(C(=O)NCc2c(C)cc(C)[nH]c2=O)c1C)C1CCOCC1`: the IC50 is above 3000 nM. Moreover, the viability, T/C (compound 0.00949 µM) was 105% and 107% and 106%. In addition, the viability, T/C (compound 0.03 µM) was 106% (2×) and 107%. The viability, T/C (compound 0.0949 µM) is 107% and 109% and 106%. Further, the viability, T/C (compound 0.3 µM) was 102% (2×) and 97.8%. Besides, the viability, T/C (compound 0.949 µM) is 101% and 104% and 108%. For the same compound, the viability, T/C (compound 3 µM) is 103% and 104% and 110%.
Consider `CC[C@@]1(O)C(=O)OCc2c1cc1n(c2=O)Cc2cc3c(CN(C)C)c(O)ccc3nc2-1`, for which the IC50 is above 100 nM. Also, the viability, T/C (compound 0.000316 µM) is 97.9% and 107% and 110%. For the same compound, the viability, T/C (compound 0.001 µM) was 103% and 111% and 112%. Also, the viability, T/C (compound 0.00316 µM) is 112% and 102% (2×). For the same compound, the viability, T/C (compound 0.01 µM) is 86.9% and 93.3% and 98.7%. Also, the viability, T/C (compound 0.0316 µM) is 79.8% and 82.3% and 85.8%. In addition, the viability, T/C (compound 0.1 µM) was 73.1% and 85% and 66.5%.
Consider `CCc1c2c(nc3ccc(O)cc13)-c1cc3c(c(=O)n1C2)COC(=O)[C@]3(O)CC`, for which the half-maximal inhibitory concentration (IC50) was 51.1 nM and 109 nM and 21.9 nM. The viability, T/C (compound 0.000949 µM) was 87% and 101% and 90.7%. Moreover, under “compound 0.003 µM”, the viability, T/C was 85.5% and 93.3% and 84.1%. The viability, T/C (compound 0.00949 µM) was 65.7% and 84% and 61.2%. Moreover, for the setting “compound 0.03 µM”, the viability, T/C is 58.1% and 70.1% and 45.5%. For the same compound, for the setting “compound 0.0949 µM”, the viability, T/C was 42.9% and 49.1% and 37.1%. Moreover, under “compound 0.3 µM”, the viability, T/C is 33.4% and 41.5% and 29.9%.
Turning to `COc1cc(C2c3cc4c(cc3C(OC3OC5COC(C)OC5C(O)C3O)C3COC(=O)C23)OCO4)cc(OC)c1O` (stereo not drawn), the IC50 is > 10000 nM and 3710 nM. In addition, the viability, T/C (compound 0.0316 µM) is 93% and 80.8% and 89.6%. Also, the viability, T/C (compound 0.1 µM) was 85.5% and 80.2% and 81.8%. In addition, the viability, T/C (compound 0.316 µM) is 78.7% and 63.3% and 72.5%. Besides, the viability, T/C (compound 1 µM) was 71.5% and 64% and 69.3%. The viability, T/C (compound 3.16 µM) is 66.6% and 52.6% and 68.2%. For the same compound, the viability, T/C (compound 10 µM) was 51.8% and 40% and 56.3%.
For the compound `COc1cc(Nc2ncc3c(n2)-c2ccc(Cl)cc2C(c2c(F)cccc2OC)=NC3)ccc1C(=O)O`, the IC50 is 2480 nM and 3420 nM and 1500 nM. The viability, T/C (compound 0.0316 µM) was 80.4% and 74.9% and 66.8%. Besides, the viability, T/C (compound 0.1 µM) was 75.4% and 73.6% and 76.6%. Also, the viability, T/C (compound 0.316 µM) was 72.2% and 71.5% and 58.7%. The viability, T/C (compound 1 µM) was 55.6% and 60.1% and 52.7%. Moreover, the viability, T/C (compound 3.16 µM) was 50% and 51.6% and 46%. Moreover, the viability, T/C (compound 10 µM) was 38.7% and 36% and 35.6%.
With `COc1cccc2c1C(=O)c1c(O)c3c(c(O)c1C2=O)CC(O)(C(=O)CO)CC3OC1CC(N)C(O)C(C)O1` (stereo not drawn), the half-inhibitory concentration (IC50) is 409 nM and 319 nM and 140 nM. In addition, the viability, T/C (compound 0.0316 µM) was 67.3% and 67.5% and 58.1%. For the same compound, under “compound 0.1 µM”, the viability, T/C was 70.1% and 60.3% and 55.9%. In addition, the viability, T/C (compound 0.316 µM) was 56.7% and 50.1% and 38.2%. The viability, T/C (compound 1 µM) was 23.9% and 24.6% and 18.1%. Further, the viability, T/C (compound 3.16 µM) is 1.61% and 1.62% and 1.55%. Moreover, where the note is “compound 10 µM”, the viability, T/C is 0.78% and 0.83% and 0.85%.
